Test results from patent US20070218147A1, “Peroxisome Proliferator-Activated Receptor (Ppar) Activator, and Drugs, Supplements, Functional Foods and Food Additives Using the Same” (ARKRAY, INC., priority 2004, published 2007).

Molecular target: T1, human PPARγ ligand-binding domain (Homo sapiens, UniProt P37231)
T1 construct: expressed in transfected cells; host or cells: CV-1 cells (African green monkey kidney)
T1 sequence (P37231 204-505): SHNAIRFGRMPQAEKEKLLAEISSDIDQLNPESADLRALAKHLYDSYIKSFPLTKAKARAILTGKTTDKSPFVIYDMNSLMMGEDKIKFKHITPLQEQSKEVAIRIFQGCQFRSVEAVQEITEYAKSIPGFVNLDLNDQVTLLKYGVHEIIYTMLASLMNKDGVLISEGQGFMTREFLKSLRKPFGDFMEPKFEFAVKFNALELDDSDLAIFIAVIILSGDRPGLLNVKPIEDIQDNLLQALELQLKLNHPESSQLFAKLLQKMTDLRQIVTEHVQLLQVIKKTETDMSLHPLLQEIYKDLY
Test: GAL4-hPPARγ luciferase reporter assay (PPARγ ligand activity) in transfected CV-1 cells
Format: cell-based
Conditions: for PPARγ ligand activity: 24 hour incubation, CV-1 cells, luciferase activity relative to non-treatment control (DMSO) = 100, average ± standard error, n=4
Method: First, CV-1 cells (cultured cells derived from kidneys of male African green monkeys) were implanted on 24-well culture plates so as to be […] and cultured at 37° C. in 5% CO2 for 24 hours. As a medium, DMEM (Dulbecco's Modified Eagle Medium; manufactured by GIBCO) containing 10% FBS (fetal bovine serum) and a 10 mg/mL penicillin streptomycin solution was used. Next, using Lipofectamine system (manufactured by Invitrogen Corporation), pM-hPPARγ and p4×UASg-tk-luc were transfected into the cultured CV-1 cells. The above-noted pM-hPPARγ was a vector for expressing fused protein containing residues 1 - 147 of GAL4 binding domain and residues 204 - 505 of human PPARγ ligand-binding domain, whereas the above-noted p4×UASg-tk-luc was a reporter plasmid containing four copies of an upstream activating sequence (UAS) for GAL4 binding domain and a thymidine kinase gene promoter in front of a luciferase gene. After the transfection, the cells were cultured for about 24 hours, and then, the media for the cells were changed to media containing β-cryptoxantine at respective concentrations (0.1, 1.0, 10 and 70 μM) or media for non-treatment control, followed by an additional 24 hour incubation. The above-noted media containing β-cryptoxantine were prepared by adding β-cryptoxantine dissolved in dimethyl sulfoxide (DMSO) to the media, whereas the media for non-treatment control were prepared by adding only DMSO to the media. After the incubation, the cells were lysed for luciferase activation assay using a Dual-Luciferase Reporter Gene Assay system (manufactured by Promega Corporation) (measurement group).
Similarly to the measurement group, as a control group, the luciferase activation assay was performed using pM (a vector containing residues 1 - 147 of GAL4 binding domain and not containing residues 204-505 of PPARγ ligand-binding domain in pM-hPPARγ) instead of pM-hPPARγ. For each sample, the ratio between average light-emission intensities of the measurement group and the control group (n=4) (measurement group/control group) was calculated, and a luciferase activity relative to the non-treatment control was determined as the PPARγ ligand-binding activity of the sample.

CC1=C(/C=C/C(C)=C/C=C/C(C)=C/C=C/C=C(C)/C=C/C=C(C)/C=C/C2=C(C)C[C@@H](O)CC2(C)C)C(C)(C)CCC1 [β-cryptoxantine]
activity of PPARγ (result in words) (0.1 to 70 μM, activity increased in keeping with the concentration): improved the activity of PPARγ | PPARγ ligand activity (addition concentration 0.1 μM): 119 ± 18.4 | PPARγ ligand activity (addition concentration 1.0 μM): 159 ± 25.0 | PPARγ ligand activity (addition concentration 10 μM): 166 ± 21.7 | PPARγ ligand activity (addition concentration 70 μM): 246 ± 22.5
